Like-named read-outs stand apart in the source and are kept apart here.
Key:
[1] = parameters: method as in PMID 18392693; settings: humans; cited from earlier work
[2] = Effect of pH on stability of nafamostat in plasma under different storage conditions; format: in vitro ADME, rat; settings: 160 ng/mL in plasma
Method: Nafamostat in the biological fluid is highly unstable because it is rapidly hydrolyzed by erythrocytes in the blood, as well as by arylesterase in the plasma. Quick plasma preparation is one of the general stabilization strategies for unstable compounds in the biological matrices. Therefore, to prevent the hydrolysis of nafamostat by erythrocytes after acquiring the blood samples, the centrifugation time of the blood samples was shortened from 10 to 5 min. In addition, the stability of nafamostat was examined by modulating the pH of plasma samples to determine the optimal pH to minimize the enzymatic hydrolysis. […] Nafamostat concentrations were also determined under various storage conditions, i.e., (A) immediately, (B) after 24 h left at room temperature, (C) after being subjected to five freeze–thaw cycles, and (D) after 10 days at −20 °C. […] Accordingly, once plasma samples were collected, 3 µL of 5.5 mol/L HCl was added to 150 µL of the collected plasma samples to keep the plasma samples in 0.35% HCl (pH = 1.2).

[3] = Stability of nafamostat in rat plasma (autosampler, freeze/thaw, short-term, long-term); format: in vitro ADME; settings: for Percentage over Theoretical Concentration, Long-Term Stability: 2 weeks; for Percentage over Theoretical Concentration, Freeze/Thaw Stability: 5 cycles; for Percentage over Theoretical Concentration, Autosampler Stability / Percentage over Theoretical Concentration, Short-Term Stability: 24 h; for Percentage over Theoretical Concentration, Autosampler Stability: 4 °C; for Percentage over Theoretical Concentration, Short-Term Stability: 20 °C
Method: The stability of the nafamostat in the rat plasma was determined under four different storage conditions. […] The stability of nafamostat and IS was examined under four different conditions using three replicates of low, medium, and high QC samples in the rat plasma. The autosampler stability was determined by analyzing the QC samples left in the autosampler at 4 °C for 24 h. The freeze–thaw stability was determined by analyzing the QC samples subject to five freeze–thaw cycles. The short-term stability was determined by analyzing the QC samples left at room temperature for 24 h. […] All stability data were expressed as the percentage of the mean response of the QC samples for stability tests vs. those of the freshly prepared samples at the same concentrations.

[4] = Pharmacokinetics of nafamostat in rats after intravenous injection and oral administration (LC-MS/MS, non-compartmental); format: in vivo; settings: rat
Method: Therefore, nafamostat dissolved in 5% DMSO was administered by intravenous injection via penile vein at a dose of 2 mg/kg (n = 5). For oral administration, nafamostat was dissolved in two types of vehicles: (1) 10% DMSO, (2) 10% DMSO with 10% Tween 80, and orally administered at a dose of 20 mg/kg (n = 5). […] The animal study was approved by the Ethics Committee for the Treatment of Laboratory Animals at Sungkyunkwan University (SKKUIACUC2021-01-57-1) and conducted in accordance with the standard operating procedures (SOPs). Male Sprague–Dawley rats (7 weeks, 188–204 g; DBL, Eumseong, Korea) were kept in plastic cages with free access to a standard diet (Cargill Agri Purina, Seongnam, Korea) and water. The animals were maintained at a temperature of 23 ± 2 °C with a 12 h light–dark cycle and relative humidity of 50 ± 10%. Nafamostat dissolved in 5% DMSO (1 mg/mL) was administered by intravenous injection via penile vein at a dose of 2 mg/kg (n = 5). Approximately 0.3 mL of the venous blood samples were collected at 5, 10, 15, 30 min, 1, 1.5, 2, 3, 4, 6, 8, and 12 h after drug administration directly from the jugular vein. For oral administration, nafamostat was dissolved in two types of vehicle: (1) 10% DMSO, (2) 10% DMSO with 10% Tween 80. The prepared nafamostat solution in Vehicle 1 or Vehicle 2 was orally administered at a dose of 20 mg/kg (n = 5). Approximately 0.3 mL of the venous blood samples were collected at 15, 30, 45 min, 1, 1.5, 2, 3, 4, 6, 8, and 12 h after drug administration directly from the jugular vein. Plasma samples were obtained by centrifugation of the blood samples at 15,000× g for 5 min. Finally, 150 μL of the plasma samples were mixed with 3 μL of the 5.5 mol/L HCl and stored at −20 °C until analysis. The plasma nafamostat concentration–time data were analyzed by a non-compartmental method using the nonlinear least-squares regression program, Phoenix WinNonlin (Version 6.4, Certara, L.P., Princeton, NJ, USA).

[5] = male, Sprague-Dawley, plasma, iv, 2 mg/kg, IV injection 2 mg/kg in 5% DMSO
[6] = male, Sprague-Dawley, plasma, po, 20 mg/kg, oral 20 mg/kg, vehicle 1: 10% DMSO
[7] = male, Sprague-Dawley, plasma, po, 20 mg/kg, oral 20 mg/kg, vehicle 2: 10% DMSO + 10% Tween 80
[8] = IV injection 2 mg/kg in 5% DMSO

N=C(N)c1ccc2cc(OC(=O)c3ccc(N=C(N)N)cc3)ccc2c1 [nafamostat, 6′-amidino-2-naphthyl 4-guanidinobenzoate]
t1/2(β) [1]: 1.87 to 2.13 h | stability (observed vs theoretical concentration) ([2]; 0.1% ammonium hydroxide (pH = 10.5), A: immediately): 29.29 ± 1.26% | stability (observed vs theoretical concentration) ([2]; 0.1% ammonium hydroxide (pH = 10.5), B: after 24 h at room temperature): 0.09 ± 0.01% | stability (observed vs theoretical concentration) ([2]; 0.1% ammonium hydroxide (pH = 10.5), C: after 5 freeze-thaw cycles): 5.21 ± 0.32% | stability (observed vs theoretical concentration) ([2]; 0.1% ammonium hydroxide (pH = 10.5), D: after 10 days at −20 °C): 0.13 ± 0.08% | stability (observed vs theoretical concentration) ([2]; 0.1% formic acid (pH = 2.8), A: immediately): 66.56 ± 3.73% | stability (observed vs theoretical concentration) ([2]; 0.1% formic acid (pH = 2.8), B: after 24 h at room temperature): 0.16 ± 0.05% | stability (observed vs theoretical concentration) ([2]; 0.1% formic acid (pH = 2.8), C: after 5 freeze-thaw cycles): 48.25 ± 2.26% | stability (observed vs theoretical concentration) ([2]; 0.1% formic acid (pH = 2.8), D: after 10 days at −20 °C): 0.12 ± 0.07% | stability (observed vs theoretical concentration) ([2]; 0.35% HCl (pH = 1.2), A: immediately): 103.67 ± 0.60% | stability (observed vs theoretical concentration) ([2]; 0.35% HCl (pH = 1.2), B: after 24 h at room temperature): 104.42 ± 2.50% | stability (observed vs theoretical concentration) ([2]; 0.35% HCl (pH = 1.2), C: after 5 freeze-thaw cycles): 103.12 ± 2.19% | stability (observed vs theoretical concentration) ([2]; 0.35% HCl (pH = 1.2), D: after 10 days at −20 °C): 107.15 ± 0.69% | stability (observed vs theoretical concentration) ([2]; 1.0% formic acid (pH = 2.2), A: immediately): 97.66 ± 6.58% | stability (observed vs theoretical concentration) ([2]; 1.0% formic acid (pH = 2.2), B: after 24 h at room temperature): 100.05 ± 1.83% | stability (observed vs theoretical concentration) ([2]; 1.0% formic acid (pH = 2.2), C: after 5 freeze-thaw cycles): 101.86 ± 1.51% | stability (observed vs theoretical concentration) ([2]; 1.0% formic acid (pH = 2.2), D: after 10 days at −20 °C): 105.67 ± 0.59% | stability (observed vs theoretical concentration) ([2]; saline (pH = 5.5), A: immediately): 63.47 ± 2.32% | stability (observed vs theoretical concentration) ([2]; saline (pH = 5.5), B: after 24 h at room temperature): 0.13 ± 0.03% | stability (observed vs theoretical concentration) ([2]; saline (pH = 5.5), C: after 5 freeze-thaw cycles): 19.01 ± 1.61% | stability (observed vs theoretical concentration) ([2]; saline (pH = 5.5), D: after 10 days at −20 °C): 9.93 ± 1.76% | Percentage over Theoretical Concentration, Long-Term Stability ([3]; 2 ng/mL): 97.25 ± 4.73% | Percentage over Theoretical Concentration, Freeze/Thaw Stability ([3]; 2 ng/mL): 99.02 ± 3.61% | Percentage over Theoretical Concentration, Autosampler Stability ([3]; 2 ng/mL): 97.2 ± 4.98% | Percentage over Theoretical Concentration, Short-Term Stability ([3]; 2 ng/mL): 96.57 ± 2.66% | Percentage over Theoretical Concentration, Long-Term Stability ([3]; 80 ng/mL): 99.38 ± 0.49% | Percentage over Theoretical Concentration, Freeze/Thaw Stability ([3]; 80 ng/mL): 100.40 ± 0.20% | Percentage over Theoretical Concentration, Autosampler Stability ([3]; 80 ng/mL): 101.31 ± 2.00% | Percentage over Theoretical Concentration, Short-Term Stability ([3]; 80 ng/mL): 101.11 ± 1.95% | Percentage over Theoretical Concentration, Long-Term Stability ([3]; 160 ng/mL): 96.62 ± 1.63% | Percentage over Theoretical Concentration, Freeze/Thaw Stability ([3]; 160 ng/mL): 98.44 ± 0.58% | Percentage over Theoretical Concentration, Autosampler Stability ([3]; 160 ng/mL): 97.45 ± 0.31% | Percentage over Theoretical Concentration, Short-Term Stability ([3]; 160 ng/mL): 97.64 ± 2.18% | Vd ([4]; male, Sprague-Dawley, plasma, IV injection 2 mg/kg in 5% DMSO, read-out: Vss): 0.99 ± 0.65 L/kg | CL/F ([4]; male, Sprague-Dawley, plasma, oral 20 mg/kg, vehicle 2: 10% DMSO + 10% Tween 80, read-out: CL or CL/F): 319 ± 119 L/h/kg | AUC(0-inf) [4, 5]: 447 ± 35.9 ng·h/mL | half-life [4, 5]: 1.39 h | Cmax ([4]; male, Sprague-Dawley, plasma, iv, 2 mg/kg, IV injection 2 mg/kg in 5% DMSO, plasma, read-out: C0 or Cmax): 5290 ± 808 ng/mL | AUC(0-inf) [4, 6]: 42.4 ± 12.5 ng·h/mL | Tmax [4, 6]: 0.45 ± 0.21 h | bioavailability [4, 6]: 0.95 ± 0.25% | half-life [4, 6]: 2.21 ± 1.3 h | Cmax ([4]; male, Sprague-Dawley, plasma, po, 20 mg/kg, oral 20 mg/kg, vehicle 1: 10% DMSO, read-out: C0 or Cmax): 27.8 ± 8.17 ng/mL | AUC(0-inf) [4, 7]: 71.2 ± 29.9 ng·h/mL | Tmax [4, 7]: 1 ± 0.53 h | bioavailability [4, 7]: 1.59 ± 0.6% | half-life [4, 7]: 2.3 ± 1.11 h | Cmax ([4]; male, Sprague-Dawley, plasma, po, 20 mg/kg, oral 20 mg/kg, vehicle 2: 10% DMSO + 10% Tween 80, read-out: C0 or Cmax): 33.2 ± 18.8 ng/mL | CL or CL/F [4, 8]: 4.495 ± 0.367 L/h/kg | Vz or Vz/F [4, 8]: 8.75 ± 3.80 L/kg | t1/2 ([4]; IV injection 2 mg/kg in 5% DMSO, plasma, 2 mg/kg): 1.34 ± 0.51 h | Vz or Vz/F ([4]; oral 20 mg/kg, vehicle 1: 10% DMSO): 1906.08 ± 1841.14 L/kg | Vz or Vz/F ([4]; oral 20 mg/kg, vehicle 2: 10% DMSO + 10% Tween 80): 998.85 ± 401.04 L/kg | time to reach peak concentration (Cmax) ([4]; oral administration 20 mg/kg, both vehicles): ≤ 1.0 h

— article PMC8955020, “Pharmacokinetics of Nafamostat, a Potent Serine Protease Inhibitor, by a Novel LC-MS/MS Analysis” (Molecules, 2022)
